Measurements taken from ChEMBL document CHEMBL5584228, “Novel saturated 1,2,4-trioxanes and their antimalarial activity against multidrug resistant Plasmodium yoelii nigeriensis in Swiss mice model via oral route” (2024).
Calls of active or inactive are those of the source. The rule behind the calls is not given here.

Legend:
[1] = test system: Plasmodium yoelii nigeriensis; assay: Antimalarial activity against multi-drug resistant Plasmodium yoelii nigeriensis infected in swiss mouse model assessed as suppression of parasitemia at 96 mg/kg, po administered for 4 days relative to control; type: functional; conditions: time 4 day
[2] = test system: Plasmodium yoelii nigeriensis; assay: Antimalarial activity against multi-drug resistant Plasmodium yoelii nigeriensis infected in swiss mouse model at 96 mg/kg, po administered for 4 days and measured within 6 to 8 days; type: functional, organism-based; conditions: time 6-8 day
[3] = test system: Plasmodium yoelii nigeriensis; assay: Antimalarial activity against multi-drug resistant Plasmodium yoelii nigeriensis infected in swiss mouse model assessed as suppression of parasitemia at 48 mg/kg, po administered for 4 days relative to control; type: functional; conditions: time 4 day
[4] = test system: Plasmodium yoelii nigeriensis; assay: Antimalarial activity against multi-drug resistant Plasmodium yoelii nigeriensis infected in swiss mouse model at 48 mg/kg, po administered for 4 days and measured within 6 to 8 days; type: functional, organism-based; conditions: time 6-8 day
[5] = test system: Plasmodium yoelii nigeriensis; assay: Antimalarial activity against multi-drug resistant Plasmodium yoelii nigeriensis infected in swiss mouse model assessed as suppression of parasitemia at 24 mg/kg, po administered for 4 days relative to control; type: functional; conditions: time 4 day
[6] = test system: Plasmodium yoelii nigeriensis; assay: Antimalarial activity against multi-drug resistant Plasmodium yoelii nigeriensis infected in swiss mouse model at 24 mg/kg, po administered for 4 days and measured within 6 to 8 days; type: functional, organism-based; conditions: time 6-8 day
[7] = test system: Plasmodium yoelii nigeriensis; assay: Antimalarial activity against multi-drug resistant Plasmodium yoelii nigeriensis infected in swiss mouse model assessed as suppression of parasitemia at 12 mg/kg, po administered for 4 days relative to control; type: functional; conditions: time 4 day
[8] = test system: Plasmodium yoelii nigeriensis; assay: Antimalarial activity against multi-drug resistant Plasmodium yoelii nigeriensis infected in swiss mouse model assessed as suppression of parasitemia at 6 mg/kg, po administered for 4 days relative to control; type: functional; conditions: time 4 day
[9] = test system: Plasmodium yoelii nigeriensis; assay: Antimalarial activity against multi-drug resistant Plasmodium yoelii nigeriensis infected in swiss mouse model assessed as animal survival at 12 to 48 mg/kg, po administered for 4 days and measured after 28 days; type: functional; conditions: dose 12-48 mg/kg, time 28 day
[10] = test system: Plasmodium yoelii nigeriensis; assay: Antimalarial activity against multi-drug resistant Plasmodium yoelii nigeriensis infected in swiss mouse model at 12 mg/kg, po administered for 4 days and measured within 6 to 8 days; type: functional, organism-based; conditions: time 6-8 day

| SMILES | Activity [1] [%] | Activity [2] | Activity [3] [%] | also measured |
| --- | --- | --- | --- | --- |
| C=C(c1ccc(Oc2ccc(-c3ccccc3)cc2)cc1)C1COC2(CCCC2)OO1 (stereo not drawn) | 100 | Active | 100 | Activity [4]: inactive |
| C=C(c1ccc(Oc2cccc3ccccc23)cc1)C1COC2(OO1)C1CC3CC(C1)CC2C3 (stereo not drawn) | 93.15 | inactive | – | – |
| C[C@H](c1ccc(Oc2cccc3ccccc23)cc1)C1COC2(OO1)C1CC3CC(C1)CC2C3 (stereo partly drawn) | 100 | – | – | – |
| C=C(c1ccc(Oc2ccc3ccccc3c2)cc1)C1COC2(OO1)C1CC3CC(C1)CC2C3 (stereo not drawn) | 100 | – | – | – |
| C[C@@H](c1ccc(Oc2ccc3ccccc3c2)cc1)C1COC2(OO1)C1CC3CC(C1)CC2C3 (stereo partly drawn) | 100 | inactive | – | – |
| CCO[C@H]1O[C@@H]2O[C@@]3(C)CC[C@H]4[C@H](C)CC[C@@H]([C@H]1C)[C@@]24OO3 [ARTEMOTIL] | – | – | 100 | Activity [5]: 100%; Activity [4]: Active |
| C[C@H](c1ccc(Oc2cccc3ccccc23)cc1)C1COC2(CCCCC2)OO1 (stereo partly drawn) | 100 | – | – | – |
| C[C@H](c1ccc(Oc2ccccc2)cc1)C1COC2(OO1)C1CC3CC(C1)CC2C3 (stereo partly drawn) | 100 | Active | 100 | – |
| C[C@@H](c1ccc(Oc2ccccc2)cc1)C1COC2(CCCC2)OO1 (stereo partly drawn) | 80 | inactive | – | – |
| C=C(c1ccc(Oc2cccc3ccccc23)cc1)C1COC2(CCCC2)OO1 (stereo not drawn) | 100 | Active | 100 | Activity [6]: inactive; Activity [5]: 100%; Activity [4]: Active |
| C[C@H](c1ccc(Oc2ccccc2)cc1)C1COC2(CCCC2)OO1 (stereo partly drawn) | 100 | Active | 60 | – |
| C[C@@H](c1ccc(Oc2cccc3ccccc23)cc1)C1COC2(CCCC2)OO1 (stereo partly drawn) | 100 | inactive | – | – |
| C[C@H](c1ccc(Oc2ccc(-c3ccccc3)cc2)cc1)C1COC2(CCCCC2)OO1 (stereo partly drawn) | 100 | – | – | – |
| C[C@H](c1ccc(Oc2ccc(-c3ccccc3)cc2)cc1)C1COC2(CCCC2)OO1 (stereo partly drawn) | – | – | 100 | Activity [5]: 100%; Activity [7]: 60% |
| C[C@H](c1ccc(Oc2ccc3ccccc3c2)cc1)C1COC2(CCCC2)OO1 (stereo partly drawn) | – | – | 100 | Activity [8]: 60%; Survival [9]: >28 days; Activity [5]: 100%; Activity [10]: Active; Activity [7]: 100% |
| C=C(c1ccc(Oc2ccccc2)cc1)C1COC2(CCCCC2)OO1 (stereo not drawn) | 100 | – | – | – |
| C[C@@H](c1ccc(Oc2ccc(-c3ccccc3)cc2)cc1)C1COC2(OO1)C1CC3CC(C1)CC2C3 (stereo partly drawn) | 90 | inactive | – | – |

| SMILES | Activity [1] [%] | Activity [2] | Activity [3] [%] | also measured |
| --- | --- | --- | --- | --- |
| C=C(c1ccc(Oc2ccccc2)cc1)C1COC2(CCCC2)OO1 (stereo not drawn) | 100 | – | – | – |
| C[C@@H](c1ccc(Oc2ccccc2)cc1)C1COC2(CCCCC2)OO1 (stereo partly drawn) | 100 | inactive | – | – |
| C[C@@H](c1ccc(Oc2ccccc2)cc1)C1COC2(OO1)C1CC3CC(C1)CC2C3 (stereo partly drawn) | 100 | inactive | – | – |
| C[C@H](c1ccc(Oc2ccc(-c3ccccc3)cc2)cc1)C1COC2(OO1)C1CC3CC(C1)CC2C3 (stereo partly drawn) | 100 | Active | 100 | – |
| C[C@@H](c1ccc(Oc2ccc3ccccc3c2)cc1)C1COC2(CCCC2)OO1 (stereo partly drawn) | 100 | Active | 100 | – |
| C[C@@H](c1ccc(Oc2cccc3ccccc23)cc1)C1COC2(OO1)C1CC3CC(C1)CC2C3 (stereo partly drawn) | 70 | inactive | – | – |
| C[C@H](c1ccc(Oc2cccc3ccccc23)cc1)C1COC2(CCCC2)OO1 (stereo partly drawn) | – | – | 100 | Activity [5]: 100%; Activity [7]: 80% |
| C[C@H](c1ccc(Oc2ccc3ccccc3c2)cc1)C1COC2(OO1)C1CC3CC(C1)CC2C3 (stereo partly drawn) | 100 | Active | 60 | – |
| C=C(c1ccc(Oc2cccc3ccccc23)cc1)C1COC2(CCCCC2)OO1 (stereo not drawn) | 92.81 | inactive | – | – |
| C=C(c1ccc(Oc2ccc3ccccc3c2)cc1)C1COC2(CCCC2)OO1 (stereo not drawn) | 100 | Active | 100 | Activity [6]: inactive; Activity [5]: 100%; Activity [4]: Active |
| C[C@H](c1ccc(Oc2ccccc2)cc1)C1COC2(CCCCC2)OO1 (stereo partly drawn) | 100 | Active | 80 | – |
| C=C(c1ccc(Oc2ccccc2)cc1)C1COC2(OO1)C1CC3CC(C1)CC2C3 (stereo not drawn) | 100 | – | – | – |
| C[C@@H](c1ccc(Oc2ccc(-c3ccccc3)cc2)cc1)C1COC2(CCCC2)OO1 (stereo partly drawn) | 100 | inactive | – | – |
| C=C(c1ccc(Oc2ccc(-c3ccccc3)cc2)cc1)C1COC2(CCCCC2)OO1 (stereo not drawn) | 84.39 | inactive | – | – |
| C=C(c1ccc(Oc2ccc(-c3ccccc3)cc2)cc1)C1COC2(OO1)C1CC3CC(C1)CC2C3 (stereo not drawn) | 100 | – | – | – |
| C[C@@H](c1ccc(Oc2cccc3ccccc23)cc1)C1COC2(CCCCC2)OO1 (stereo partly drawn) | 100 | inactive | – | – |
| C[C@@H](c1ccc(Oc2ccc(-c3ccccc3)cc2)cc1)C1COC2(CCCCC2)OO1 (stereo partly drawn) | 100 | inactive | – | – |
